According to the supplement of paper PMC10307832:

Compound: CC[C@H](CO)Nc1nc(NCc2ccccc2)c2ncn(C(C)C)c2n1 [Seliciclib] + CS(=O)(=O)N1CCN(Cc2cc3nc(-c4cccc5[nH]ncc45)nc(N4CCOCC4)c3s2)CC1 [Pictilisib] (partner 1 µM)
Assay: relative viability (nuclei count vs DMSO), 5 days (fraction); higher = more cells survive
Procedure, shortened: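 Lung cancer cell lines in 1536-well plates got either a single drug or a fixed anchor-drug dose together with five library-drug doses (not always all listed) in √10 steps, by pin tool, on the day after seeding. Nuclei were counted after 5 days, and relative viability is the treated-to-vehicle ratio of nuclei counts. Values are medians of duplicate plates.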

Row | Cell Line | relative viability (first compound 0.08 µM) | relative viability (first compound 0.253 µM) | relative viability (first compound 0.8 µM) | relative viability (first compound 2.53 µM) | relative viability (first compound 8 µM)
1 | 201T | 0.712 | 0.693 | 0.676 | 0.656 | 0.626
2 | A549 | 0.501 | 0.595 | 0.525 | 0.507 | 0.273
3 | A-427 | 0.753 | 0.737 | 0.646 | 0.688 | 0.695
4 | ABC-1 | 0.773 | 0.927 | 0.619 | 0.42 | 0.424
5 | BEN | 0.596 | – | 0.549 | 0.675 | 0.545
6 | CAL-12T | 0.304 | 0.566 | 0.39 | 0.303 | 0.221
7 | COR-L23 | 0.63 | 0.782 | 0.86 | 0.584 | 0.49
8 | COR-L 105 | 0.379 | 0.379 | 0.371 | 0.32 | 0.36
9 | Calu-6 | 0.93 | 0.969 | 0.937 | 0.917 | 0.759
10 | ChaGo-K-1 | 0.766 | 0.533 | 0.638 | 0.513 | 0.378
11 | EBC-1 | 0.449 | 0.407 | 0.387 | 0.354 | 0.343
12 | EKVX | 0.42 | 0.5 | 0.417 | 0.423 | 0.305
13 | EMC-BAC-2 | 0.505 | 0.526 | 0.497 | 0.392 | 0.51
14 | EPLC-272H | 0.316 | 0.338 | 0.287 | 0.174 | 0.3
15 | H3255 | 0.47 | 0.567 | 0.487 | 0.483 | 0.502
16 | HARA | 0.284 | 0.376 | 0.339 | 0.422 | 0.283
17 | HCC-15 | 0.705 | 0.857 | 0.473 | 0.791 | 0.548
18 | HCC-44 | 0.639 | 0.691 | 0.534 | 0.46 | 0.44
19 | HCC-78 | 0.203 | 0.274 | 0.187 | 0.174 | 0.181
20 | HCC-366 | 0.12 | 0.137 | 0.106 | 0.109 | 0.163
21 | HCC-827 | 0.953 | 0.963 | 0.811 | 1.03 | 0.925
22 | HOP-62 | 0.778 | 0.61 | 0.563 | 0.588 | 0.62
23 | IA-LM | 0.338 | 0.412 | 0.344 | 0.346 | 0.232
24 | LC-2-ad | 0.487 | 0.572 | 0.34 | 0.205 | 0.0269
25 | LCLC-97TM1 | 0.281 | 0.168 | 0.17 | – | 0.142
26 | LCLC-103H | 0.819 | 0.673 | 0.627 | 0.434 | 0.576

Row | Cell Line | relative viability (first compound 0.08 µM) | relative viability (first compound 0.253 µM) | relative viability (first compound 0.8 µM) | relative viability (first compound 2.53 µM) | relative viability (first compound 8 µM)
27 | LK-2 | 0.591 | 0.562 | 0.614 | 0.541 | 0.447
28 | LOU-NH91 | 0.49 | 0.573 | 0.495 | 0.484 | 0.468
29 | LU99A | 0.349 | 0.301 | 0.374 | 0.229 | 0.284
30 | LXF-289 | 0.779 | 0.86 | 0.701 | 0.595 | 0.724
31 | NCI-H23 | 0.507 | 0.462 | 0.395 | 0.283 | 0.365
32 | NCI-H322M | 0.523 | 0.583 | 0.494 | 0.449 | 0.379
33 | NCI-H358 | 0.346 | 0.408 | 0.289 | 0.312 | 0.216
34 | NCI-H441 | 0.49 | 0.635 | 0.531 | 0.469 | 0.377
35 | NCI-H460 | 0.367 | 0.376 | 0.275 | 0.248 | 0.252
36 | NCI-H520 | 0.305 | 0.326 | 0.287 | 0.318 | 0.252
37 | NCI-H596 | 0.376 | 0.36 | 0.403 | 0.421 | 0.415
38 | NCI-H647 | 0.367 | 0.45 | 0.25 | 0.296 | 0.248
39 | NCI-H650 | 0.887 | 0.869 | 1.04 | – | 0.772
40 | NCI-H661 | 0.362 | 0.404 | 0.375 | 0.295 | 0.354
41 | NCI-H727 | 0.43 | 0.338 | 0.197 | 0.232 | 0.296
42 | NCI-H838 | 0.469 | 0.468 | 0.432 | 0.408 | 0.294
43 | NCI-H1299 | 0.792 | 0.765 | 0.72 | 0.841 | 0.656
44 | NCI-H1355 | 0.426 | 0.452 | 0.359 | 0.452 | 0.429
45 | NCI-H1395 | 0.6 | 0.757 | 0.641 | 0.535 | 0.649
46 | NCI-H1437 | 0.484 | 0.377 | 0.439 | 0.394 | 0.331
47 | NCI-H1563 | 0.649 | 0.621 | 0.681 | 0.567 | 0.691
48 | NCI-H1650 | 0.579 | 0.631 | 0.526 | 0.466 | 0.354
49 | NCI-H1651 | 0.484 | 0.636 | 0.563 | 0.45 | 0.487
50 | NCI-H1666 | 0.33 | 0.526 | 0.478 | 0.353 | 0.439
51 | NCI-H1703 | 0.252 | 0.234 | 0.26 | 0.225 | 0.241
52 | NCI-H1734 | 0.452 | 0.477 | 0.385 | 0.379 | 0.41

Row | Cell Line | relative viability (first compound 0.08 µM) | relative viability (first compound 0.253 µM) | relative viability (first compound 0.8 µM) | relative viability (first compound 2.53 µM) | relative viability (first compound 8 µM)
53 | NCI-H1755 | 0.414 | 0.504 | 0.389 | 0.339 | 0.386
54 | NCI-H1792 | 0.233 | 0.313 | 0.273 | 0.285 | 0.274
55 | NCI-H1793 | 0.282 | 0.339 | 0.317 | 0.32 | 0.294
56 | NCI-H1915 | 0.918 | 1.05 | 0.824 | 0.839 | 0.803
57 | NCI-H1944 | 0.375 | 0.35 | 0.333 | 0.283 | 0.303
58 | NCI-H1975 | 0.296 | 0.298 | 0.352 | 0.214 | 0.271
59 | NCI-H1993 | 0.816 | 0.703 | 0.847 | 0.777 | 0.847
60 | NCI-H2009 | 0.77 | 1.11 | 0.584 | 0.762 | 0.699
61 | NCI-H2023 | 0.227 | 0.224 | 0.232 | 0.164 | 0.182
62 | NCI-H2085 | 0.504 | 0.533 | 0.394 | 0.493 | 0.425
63 | NCI-H2087 | 1.03 | 1.12 | 0.508 | 0.813 | 0.832
64 | NCI-H2126 | 0.507 | 0.548 | 0.456 | 0.423 | 0.467
65 | NCI-H2170 | 0.306 | 0.255 | 0.286 | 0.243 | 0.336
66 | NCI-H2228 | 0.372 | 0.333 | 0.234 | 0.457 | 0.339
67 | NCI-H2347 | 0.645 | 0.6 | 0.321 | 0.829 | 0.448
68 | NCI-H2405 | 0.462 | 0.43 | 0.314 | 0.288 | 0.35
69 | NCI-H3122 | 0.607 | 0.63 | 0.432 | 0.509 | 0.506
70 | PC-3 [JPC-3] | 0.825 | 0.954 | 0.652 | 0.712 | 0.652
71 | PC-14 | 0.622 | 0.67 | 0.69 | 0.808 | 0.513
72 | RERF-LC-KJ | 0.431 | 0.511 | 0.633 | 0.59 | 0.443
73 | SK-LU-1 | 0.615 | 0.641 | 0.762 | 0.556 | 0.526
74 | SK-MES-1 | 0.317 | 0.349 | 0.353 | 0.335 | 0.31
75 | SW 1573 | 0.494 | 0.516 | 0.428 | 0.516 | 0.474
76 | UMC-11 | 0.919 | 0.891 | 0.854 | 0.8 | 0.7
